Results: ChEMBL document CHEMBL1136591, “Novel N1-(benzyl)cinnamamidine derived NR2B subtype-selective NMDA receptor antagonists” (Bioorg Med Chem Lett, 2003)

tested on: Glutamate NMDA receptor GRIN1/GRIN2A (Homo sapiens); experiment: Inhibition of the response to glutamate/glycine in NR1a/NR2A expressing cells (No effect uM); call rule not given here

IC50 | SMILES
Not Active | N=C(/C=C/c1ccccc1)NCc1ccccc1

target: T1, Glutamate NMDA receptor; GRIN1/GRIN2B (Homo sapiens, UniProt Q05586+Q13224); experiment: Displacement of [3H]ifenprodil binding to recombinant human NR1a/NR2B receptors expressed in L(tk-) cells; assay type: cell-based
T1 sequence (Q13224 whole entry, other chains not shown): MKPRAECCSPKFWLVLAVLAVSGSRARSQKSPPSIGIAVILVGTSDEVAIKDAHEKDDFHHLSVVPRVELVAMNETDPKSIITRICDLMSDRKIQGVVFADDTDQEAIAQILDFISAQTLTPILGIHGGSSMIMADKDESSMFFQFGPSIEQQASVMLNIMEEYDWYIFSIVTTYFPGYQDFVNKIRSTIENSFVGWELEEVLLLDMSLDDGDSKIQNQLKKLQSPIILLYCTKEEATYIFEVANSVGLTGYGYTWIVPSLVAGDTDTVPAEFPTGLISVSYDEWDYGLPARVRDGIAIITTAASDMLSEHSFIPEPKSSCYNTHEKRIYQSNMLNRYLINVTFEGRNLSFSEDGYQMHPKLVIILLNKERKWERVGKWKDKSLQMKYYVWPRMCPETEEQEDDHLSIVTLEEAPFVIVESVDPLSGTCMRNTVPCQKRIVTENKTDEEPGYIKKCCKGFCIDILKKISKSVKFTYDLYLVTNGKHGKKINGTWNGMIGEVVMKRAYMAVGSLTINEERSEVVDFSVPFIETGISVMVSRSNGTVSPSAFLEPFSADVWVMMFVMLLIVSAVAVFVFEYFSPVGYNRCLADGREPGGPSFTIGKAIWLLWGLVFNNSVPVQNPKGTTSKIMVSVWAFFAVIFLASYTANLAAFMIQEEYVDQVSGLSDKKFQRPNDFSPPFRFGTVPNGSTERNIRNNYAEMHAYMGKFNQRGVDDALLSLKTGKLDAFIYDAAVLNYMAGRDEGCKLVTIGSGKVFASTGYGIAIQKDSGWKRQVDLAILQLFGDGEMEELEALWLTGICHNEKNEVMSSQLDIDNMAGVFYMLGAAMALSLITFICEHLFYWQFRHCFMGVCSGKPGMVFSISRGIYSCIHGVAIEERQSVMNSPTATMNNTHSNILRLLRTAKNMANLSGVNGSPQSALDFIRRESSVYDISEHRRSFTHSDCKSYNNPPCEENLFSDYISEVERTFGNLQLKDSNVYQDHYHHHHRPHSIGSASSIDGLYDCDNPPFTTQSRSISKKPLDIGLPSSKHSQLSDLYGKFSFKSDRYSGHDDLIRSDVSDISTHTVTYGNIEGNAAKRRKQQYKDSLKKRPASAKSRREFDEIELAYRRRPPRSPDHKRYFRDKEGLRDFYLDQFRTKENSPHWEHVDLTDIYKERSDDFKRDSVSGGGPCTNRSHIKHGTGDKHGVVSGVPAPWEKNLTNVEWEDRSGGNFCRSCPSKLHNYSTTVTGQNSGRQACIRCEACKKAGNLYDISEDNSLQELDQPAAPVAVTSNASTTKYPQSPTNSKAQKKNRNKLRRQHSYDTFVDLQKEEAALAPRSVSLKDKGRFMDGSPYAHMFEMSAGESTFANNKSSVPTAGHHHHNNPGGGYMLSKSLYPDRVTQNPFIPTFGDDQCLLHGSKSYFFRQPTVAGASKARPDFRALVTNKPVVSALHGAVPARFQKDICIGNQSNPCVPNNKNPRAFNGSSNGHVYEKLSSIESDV

SMILES | Ki [nM]
N=C(NCc1ccccc1Cl)c1ccc2ccccc2c1 | 7.3
N=C(CCc1ccccc1)NCc1ccccc1 | 530
N=C(/C=C/c1ccccc1)NCc1ccc(Cl)cc1 | 77
N=C(/C=C/C1CCCCC1)NCc1ccccc1 | 19
N=C(/C=C/c1ccccc1)NCCc1ccccc1 | 97
N=C(/C=C/c1ccccc1Cl)NCc1ccccc1 | 93
N=C(/C=C/c1cccc(Cl)c1)NCc1ccccc1 | 12
N=C(/C=C/c1ccccc1)NCc1cccc(C(F)(F)F)c1 | 31
NC(=NCc1ccccc1)c1ccccc1 | 10000
N=C(/C=C/c1ccc(F)cc1)NCc1ccccc1 | 5.7
N=C(/C=C/c1ccccc1)NCCCc1ccccc1 | 120
N=C(NCCc1ccccc1)c1ccccc1 | 55
N=C(/C=C/c1ccc(Cl)cc1)NCc1ccccc1 | 52
N=C(NCc1ccccc1)c1ccc2ccccc2c1 | 32
C[C@@H](CN1CCC(Cc2ccccc2)CC1)[C@@H](O)c1ccc(O)cc1 | 10

Other lines, results leading:

Ki [nM] | SMILES
3.6 | N=C(/C=C/c1ccccc1)NCc1cccc(Cl)c1Cl
2.7 | N=C(/C=C/c1ccccc1)NCc1cc(Cl)ccc1Cl
1.9 | COc1cccc(C/N=C(N)/C=C/c2ccccc2)c1
1.7 | N=C(/C=C/c1ccc(F)c(F)c1)NCc1ccccc1
1.6 | N=C(NCc1cccc(Cl)c1)c1ccc2ccccc2c1
1.4 | N=C(/C=C/c1ccccc1)NCc1cc(Cl)cc(Cl)c1
1.4 | N=C(/C=C/c1ccccc1)NCc1ccccc1C(F)(F)F
1.3 | COc1ccccc1C/N=C(\N)c1ccc2ccccc2c1
1 | N=C(/C=C/c1ccccc1)NCc1ccccc1Cl
0.8 | N=C(/C=C/c1ccccc1)NCc1cccc(Cl)c1
0.6 | N=C(/C=C/c1ccccc1)NCc1ccccc1OC(F)(F)F
0.5 | CCOc1ccccc1C/N=C(N)/C=C/c1ccccc1

target: T1, Glutamate NMDA receptor; GRIN1/GRIN2B; experiment: Inhibition of the response to glutamate/glycine in NR1a/NR2B expressing cells; assay type: functional, cell-based

IC50 [nM] | SMILES
70 | N=C(/C=C/c1ccccc1)NCc1ccccc1
